Assay results from ChEMBL document CHEMBL1201862, “PubChem BioAssay data set” (2004).
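48-hour exposure; five concentrations; linearly interpolated endpoints. GI50: concentration for 50% inhibition of growth.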 Active and inactive are the calls of the source. Cut-off read from the data, not from the text of the source: active = GI50 up to about 1.1 µM and inactive = higher.

How the values were obtained:
Experiment in all cases: NCI anticancer screen, dose series, 48 h
A549 = test system: A549
ACHN = test system: ACHN
CCRF-CEM = test system: CCRF-CEM
COLO 205 = test system: COLO 205
EKVX = test system: EKVX
HL-60 = test system: HL-60
HOP-92 = test system: HOP-92
K562 = test system: K562
LXFL 529 = test system: LXFL 529
NCI-H460 = test system: NCI-H460
SF-295 = test system: SF-295
SK-MEL-28 = test system: SK-MEL-28
SK-MEL-2 = test system: SK-MEL-2
SK-MEL-5 = test system: SK-MEL-5
SK-OV-3 = test system: SK-OV-3
U-251 = test system: U-251
BT-549 = test system: BT-549
Hs-578T = test system: Hs-578T
MDA-MB-231 = test system: MDA-MB-231
MDA-N = test system: MDA-N

Measured: GI50

Oc1ccc(Br)cc1/C=N/c1ccc(Oc2ccc(/N=C/c3cc(Br)ccc3O)cc2)cc1
inactive: A549 > 19.6 µM | ACHN > 19.6 µM | CCRF-CEM > 19.6 µM | COLO 205 > 19.6 µM | EKVX > 19.6 µM | HL-60 > 19.6 µM | HOP-92 > 19.6 µM | K562 > 19.6 µM | LXFL 529 > 19.6 µM | NCI-H460 > 19.6 µM | SF-295 > 19.6 µM | SK-MEL-28 > 19.6 µM | SK-MEL-2 > 19.6 µM | SK-MEL-5 > 19.6 µM | SK-OV-3 > 19.6 µM | U-251 > 19.6 µM

COc1cc(/C=C/c2ccc(OC)c(O)c2)cc(OC)c1
inactive: A549 4.82 µM | ACHN 7.52 µM | CCRF-CEM 3.15 µM | COLO 205 26.5 µM | EKVX 9.66 µM | HL-60 1.75 µM | HOP-92 7.71 µM | K562 2.43 µM | LXFL 529 6.03 µM | NCI-H460 3.65 µM | SF-295 1.96 µM | SK-MEL-28 6.08 µM | SK-MEL-2 6.41 µM | SK-MEL-5 4.18 µM | SK-OV-3 36.1 µM | U-251 3.92 µM

CC(=O)OC1OC2C(NC(=O)OC(C)(C)C)C1CC2(OCc1ccccc1)OCc1ccccc1 (stereo not drawn)
inactive: A549 36.5 µM | ACHN 22.4 µM | CCRF-CEM 18.3 µM | COLO 205 21.7 µM | EKVX 34.7 µM | HL-60 12.8 µM | HOP-92 12.5 µM | K562 17 µM | LXFL 529 20 µM | NCI-H460 34.8 µM | SF-295 35.2 µM | SK-MEL-28 20.9 µM | SK-MEL-2 19.8 µM | SK-MEL-5 17.6 µM | SK-OV-3 28.3 µM | U-251 14.4 µM

OC1OCC(COc2cc(Cl)c(Cl)cc2Cl)OC1O (stereo not drawn)
inactive: A549 55 µM | ACHN 25.3 µM | CCRF-CEM 32 µM | COLO 205 52.1 µM | EKVX 34.3 µM | HL-60 26.2 µM | HOP-92 56.1 µM | K562 33.6 µM | LXFL 529 46.8 µM | NCI-H460 44.5 µM | SF-295 45.8 µM | SK-MEL-28 65.3 µM | SK-MEL-5 39.5 µM | SK-OV-3 88.1 µM | U-251 36.6 µM

CC1(C)C(=O)C(=Cc2ccco2)C1=O
inactive: A549 > 100 µM | ACHN > 100 µM | CCRF-CEM > 100 µM | COLO 205 > 100 µM | EKVX > 100 µM | HL-60 > 100 µM | HOP-92 > 100 µM | K562 > 100 µM | LXFL 529 > 100 µM | NCI-H460 > 100 µM | SF-295 > 100 µM | SK-MEL-28 > 100 µM | SK-MEL-2 > 100 µM | SK-MEL-5 > 100 µM | SK-OV-3 > 100 µM | U-251 > 100 µM

CN(C)c1n/c(=N/Cc2ccco2)ss1
inactive: A549 15.6 µM | ACHN 25.9 µM | BT-549 18.6 µM | CCRF-CEM 1.43 µM | COLO 205 2.06 µM | EKVX 37.9 µM | HL-60 1.59 µM | Hs-578T 29.6 µM | K562 3.77 µM | LXFL 529 38.9 µM | MDA-MB-231 15.8 µM | MDA-N 16.6 µM | NCI-H460 10.9 µM | SF-295 37.2 µM | SK-MEL-28 11.6 µM | SK-MEL-2 > 21.1 µM | SK-MEL-5 2.76 µM | SK-OV-3 55.6 µM | U-251 31.5 µM
